According to patent US10233207B2, “Crystalline form of nicotinamide riboside” (W. R. Grace & Co.—Conn., priority 2014, dated 2019):

Columns and labels:
[1] = type: physicochemical
Description: The instant crystalline Form I of nicotinamide riboside chloride may be provided in one of several different morphologies. For example, the crystalline material may exist in a morphology having a bulk density of about 0.25 to about 0.4 g/mL, or may exist in a morphology having a bulk density of about 0.40 to about 0.65 g/mL. The present disclosure also relates to mixtures of at least these two morphologies in any proportion. FIG. 3A depicts a Scanning Electron Microscopy (SEM) image of the inventive crystalline nicotinamide riboside chloride in a morphology having a bulk density of about 0.25 to about 0.4 g/mL, and FIG. 3B depicts a Scanning Electron Microscopy (SEM) image of the inventive crystalline nicotinamide riboside chloride in a morphology having a bulk density of about 0.40 to about 0.65 g/mL. […] This morphology also appears to provide the product with a slightly higher purity as well. Because of the purity, stability, and color variations in the other morphology (the morphology having a bulk density of about 0.40 to about 0.65 g/mL), in at least some instances a preference exists for the crystalline nicotinamide chloride having a bulk density of about 0.25 to about 0.4 g/mL as it appears to produce higher quality product with more consistency.

[2] = Hygroscopicity / Dynamic Vapor Sorption (DVS) moisture sorption isotherm; type: physicochemical
Protocol: Moisture sorption isotherms were collected on a DVS-1 system from Surface Measurement Systems UK Ltd. (London, UK) for both crystalline Form I of nicotinamide riboside chloride and for the amorphous form of nicotinamide riboside chloride. Sample sizes were between 9.7 and 14.3 mg of solid material. The relative humidity was started with an initial drying step going from 40% RH to 0% RH. Subsequently, the relative humidity was increased to 95% (sorption), decreased to 0% RH (desorption) and increased again to 95% RH (sorption). Weight equilibration was set per step with a holding time of 1 hour (10% relative humidity step). Individual samples sizes were 12.6568 mg for crystalline Form I and 9.6799 mg for the amorphous sample. FIG. 8A provides a DVS change in mass plot for a sample of the crystalline Form I of nicotinamide riboside chloride, and FIG. 8B provides a DVS isotherm plot for a sample of the crystalline Form I of nicotinamide riboside chloride. FIG. 9A provides a DVS change in mass plot for a sample of the amorphous form of nicotinamide riboside chloride, and FIG. 9B provides a DVS isotherm plot for a sample of the amorphous form of nicotinamide riboside chloride.
FIG. 10 provides a comparison of the sorption curve for crystalline Form I of nicotinamide riboside chloride with the sorption curve for the amorphous sample. […] Even at 70% relative humidity, the weight of the crystalline sample had not increased by more than about 1.0%. These characteristics of the crystalline Form I are advantageous for the handling of the material overall and represent the ability to remain stable over a greater range of working conditions relative to the amorphous form.

[3] = high-fat diet supplemented with nicotinamide riboside; cited from earlier work

NC(=O)c1ccc[n+]([C@@H]2O[C@H](CO)[C@@H](O)[C@H]2O)c1.[Cl-]
stability to degradation via oxygen or water absorption, compared with morphology of bulk density about 0.40 to about 0.65 g/mL [1]: more stable to degradation via oxygen or water absorption

3-carbamoyl-1-[(2R,3R,4S5R)-3,4-dihydroxy-5-(hydroxymethypoxolan-2-yl]-pyrin-1-ylium chloride
rate of water absorption compared with amorphous material ([2]; 0% to 60% relative humidity, sorption curve FIG. 10): much less prone to absorption at lower relative humidities than the amorphous material | weight increase of sample (water sorption) ([2]; 70% relative humidity): ≤ 1.0% | water uptake (water vapor sorption isotherm) ([2]; relative humidity of up to 60%): not more than 0.5 wt % | water uptake (water vapor sorption isotherm) ([2]; relative humidity of up to 70%): not more than 1.0 wt %

NC(=O)c1ccc[n+]([C@@H]2O[C@H](CO)[C@@H](O)[C@H]2O)c1 [nicotinamide riboside, Nicotinamide riboside]
less weight gained than mice on same high-fat diet without nicotinamide riboside [3]: 60%
